Experiment [1] addresses muscarinic receptors. Nature of the experiment: Radio ligand binding: displacement of muscarinic agonist 3H-Oxotremorine-M (3H-OXO-M) from rat cerebral cortex membranes. Set-up: species or system Hooded Lister rats. The note with it: 2nM 3H-OXO-M, 2mM magnesium chloride, tris pH 7.7, 37° C., 30 min.
Experiment [2] has as its target muscarinic receptors. It counts as binding, Hooded Lister rats. The settings on record: 0.27nM 3H-QNB, rat cerebral cortex, tris pH 7.7, 37° C., 30 min.

What is called IC50 is the concentration at which inhibition is half-maximal. A lower IC50 goes with inhibition by little substance.

Like-named read-outs stand apart in the source and are kept apart here.

As for `Nc1ncc([C@H]2C[C@@H]3CCN(C3)C2)o1` (relative stereo) [Example E16, (±) exo 3-(2-Amino-1,3-oxazol-5-yl)-1-azabicyclo[3.2.1]octane], the results for the half-inhibitory concentration (IC50) at muscarinic receptors [1] and against muscarinic receptors [2] were 0.56 µM and 42 µM, respectively.

`Nc1nc(C23CCCN(CC2)C3)cs1` (racemic) [Example E4, (±5-(2-Amino-1,3-thiazol-4-yl)-1-azabicyclo[3.2.1]octane]: the results for the half-maximal inhibitory concentration (IC50) on muscarinic receptors [1] and on muscarinic receptors [2] were 0.28 µM and 5.6 µM, respectively.

For the compound `Nc1ncc(C23CCCN(CC2)C3)o1` (racemic) [Example E3, (±) 5-(2-Amino-1,3-oxazol-5-yl)-1-azabicyclo[3.2.1]-octane], the values for the 50% inhibitory concentration (IC50) on muscarinic receptors [1] and on muscarinic receptors [2] were 0.004 µM and 3.5 µM, respectively.

For the compound `Nc1ncc(C2CN3CCC2C3)o1` (racemic) [Example E6, (±) exo and endo 3-(2-Amino-1,3-oxazol-5-yl)-1-azabicyclo[[2.2.1]heptane], the values for the IC50 on muscarinic receptors [1] and against muscarinic receptors [2] were 0.2 µM and 10.3 µM, respectively.

With `COC(=O)c1ncc(C23CCCN(CC2)C3)o1` (racemic) [Example E9, (±)5-(2-Methoxycarbonyl-1,3-oxazol-5-yl)-1-azabicyclo [3.2.1]octane], the 50% inhibitory concentration (IC50) at muscarinic receptors [1] was found to be 2 µM; against muscarinic receptors [2] it was 30.5 µM.

For the compound `Nc1ncc(C2CN3CCC2CC3)o1` (racemic) [Example E2, (±) 3-(2-Amino-1,3-oxazol-5-yl)-1-azabicyclo[2.2.2]octane], the values for the IC50 on muscarinic receptors [1] and against muscarinic receptors [2] were 0.44 µM and 17 µM, respectively.

With `FCc1ncc(C23CCCN(CC2)C3)o1` (racemic) [Example E12, (±)5-(2-Fluoromethyl-1,3-oxazol-5-yl)-1-azabicyclo [3.2.1]octane], the concentration for half-maximal inhibition (IC50) at muscarinic receptors [1] turned out to be 0.005 µM; on muscarinic receptors [2], 0.44 µM.

As for `Nc1ncc(C23CCN(CC2)C3)o1` [Example E5], the half-maximal inhibitory concentration (IC50) turned out to be 0.018 µM at muscarinic receptors [1] and 11 µM against muscarinic receptors [2].

Regarding `COCc1ncc(C23CCCN(CC2)C3)o1` (racemic) [Example E11, (±)5-(2-Methoxymethyl-1,3-oxazol-5-yl)-1-azabicyclo [3.2.1]octane], the results for the half-maximal inhibitory concentration (IC50) on muscarinic receptors [1] and at muscarinic receptors [2] were 0.22 µM and 2.6 µM, respectively.

As for `N#Cc1ncc(C23CCCN(CC2)C3)o1` (racemic) [Example E13, (±)5-(2-Cyano-1,3-oxazol-5-yl)-1-azabicyclo[3.2.1]octane], the IC50 on muscarinic receptors [1] worked out at 0.38 µM; at muscarinic receptors [2], 2.8 µM.

Turning to `OCc1ncc(C23CCCN(CC2)C3)o1` (racemic) [Example E10, (±)5-(2-Hydroxymethyl-1,3-oxazol-5-yl)-1-azabicyclo [3.2.1]octane], the IC50 was determined as 0.206 µM at muscarinic receptors [1] and 7 µM against muscarinic receptors [2].

`COCc1ncc(C23CCN(CC2)C3)o1` [Example E17, 4-(2-Methoxymethyl-1,3-oxazol-5-yl)-1-azabicyclo[2.2.1]-heptane]: the IC50 on muscarinic receptors [1] stood at 1.05 µM; on muscarinic receptors [2], 60 µM.

For `Nc1nc(C23CCCN(CC2)C3)co1` (racemic) [Example E1, (±) 5-(2-Amino-1,3-oxazol-4-yl)-1-azabicyclo[3.2.1]octane], the IC50 was 0.25 µM at muscarinic receptors [1] and 42 µM at muscarinic receptors [2].
